From patent US7879914B2, “Methods for treating viral infections using polyamine analogs” (Pathlogica LLC, priority 2005, dated 2011)

Experiments:
[1] = tested on: CD14/CD16+ blood macrophages from normal (uninfected) patients; experiment: Susceptibility assay: killing of CD14/CD16+ blood macrophages from normal patients; format: cell-based, human; conditions: FIG. 4, ex vivo
Experimental: The following procedures/protocols were used in some of the examples that follow. All steps were performed in a biological safety cabinet using Universal Precautions for handling human blood samples and standard aseptic techniques.
The PBMC for the susceptibility assays was prepared in accordance with the following procedures. A cell culture medium was prepared by mixing RPMI+10% FBS+1% sodium pyruvate and filter sterilized using a filter unit with 0.22 micron pore size. The cell pellet was then resuspended in 3 ml of the cell culture medium. The suspension was gently mixed by slowly pipetting up and down 3 times. The cells were counted using a hemacytometer and the cell density was adjusted to 1×10^6 cells/mL in the cell culture medium, followed by mixing by slowly pipetting up and down 3 times. The cells were incubated in a 50 mL sterile polypropylene tube, at 37° C. and 5% CO2 for 1-2 days. […]
Fluorescence emission measurements were obtained with a flow cytometer, using the following instrument settings in BD FACSCAN: 1) Detector: FL1=533 amps; FL2=570 amps; and FL3=550 amps; 2) Threshold=FSC 180; 3) Compensation: FL1 10.5% FL2; FL2 26.1% FL1; FL2 8.3% FL3; FL3 25.4% FL2; 4) Count=50,000 UNgated events.
The ability of polyamine analogs MGBG and CG47 to kill CD14/CD16+ blood macrophages in HIV infected and normal patients was measured. […]

CD14+ CD16+ monocytes = experiment: In vitro killing of cultured rhesus macaque monocytes; format: cell-based
Experimental: Dose response experiments with MGBG were performed to assess its ability to kill CD14+ CD16+ monocytes in nonadherent PBMC cultures.

HIV proviral DNA = experiment: HIV proviral load after exposure of mononuclear cells in culture (Example 7); format: cell-based
Experimental: Mononuclear cells from HIV infected individuals were isolated and exposed to PA-001 in culture under non-adherent conditions for five days. The cells were then separated into CD3+ and CD14+ fractions via antibody-coated magnetic beads using a Miltenyi apparatus. The “-/-” samples represent flow thru after CD3+ and CD14+ cells were removed. Genomic DNA was prepared and then amplified with HIV specific primers and primers homologous to the single copy gene cJun. Results with HIV specific primers were normalized to those obtained with cJun. The number of HIV DNA copies per cellular DNA equivalent after exposure of mononuclear cell cultures from HIV infected individuals to PA-001 under non-adherent conditions for five days is shown in FIG. 7. Results with HIV specific primers were normalized to those obtained with cJun. Each bar represents the mean of three separate determinations. The error bar indicates one standard deviation from the mean. The numbers under the sample designations indicate the % of CD16+ monocytes killed by PA-001. ND=not done.

SIVmac251 = experiment: SIVmac251-infected, CD8-depleted animals, 250 mg/m^2 on alternate weeks; format: in vivo, rhesus macaque
Experimental: These experiments once again used SIVmac251-infected, CD8-depleted animals, and again treatment was initiated at five days p.i. For this experiment, however, 250 mg/m^2 PA-001 (MGBG) was used and the animals were treated on alternate weeks, as is done in humans. Two animals were SIVmac251-infected, CD8-depleted, and PA-001 treated, and two were not drug treated, SIVmac251-infected, CD8-depleted controls. As of the time this study was conducted, the treated animals had received four doses of PA-001 and lived past day 55. In contrast, the non-treated animals developed AIDS and SIV encephalitis (SIVE) and in fact, one of the CD8-depleted, non-treated animals had died of AIDS and SIVE and the second non PA-001 treated animal was scheduled for sacrifice due to AIDS.
SIV-infected, CD8-depleted animals without PA-001 treatment (EJ02 and EL95) had higher counts of total monocytes (top) and the CD14+CD16+ subset (bottom). In fact, one of the untreated animals (EJ02) died of AIDS and SIVE at day 55 p.i.

SMILES | sensitivity of CD14/CD16+ macrophages from the normal patient [1] | activated monocytes killed (CD14+ CD16+ monocytes; 10 μM, five-day assay, monkey n=4) | decrease of CD14+ CD16+ monocytes, dose dependence (CD14+ CD16+ monocytes; nonadherent PBMC cultures, five days) | HIV proviral load in cells that neither bound to CD14 or CD3 antibodies (HIV proviral DNA; FIG. 7B) | yield of HIV DNA in T cells (HIV proviral DNA; five days, CD3+ fraction) | HIV proviral load in CD14+ cells (HIV proviral DNA; five days, non-adherent conditions) | CD14+ and CD16+ monocyte populations (SIVmac251; detailed flow cytometry) | survival of treated animals (SIVmac251; four doses of 250 mg/m^2, alternate weeks) | absolute numbers of total monocytes (SIVmac251; vs non-treated animals, FIG. 11)
CCNCCCNC/C=C\CNCCCNCC.Cl.Cl.Cl.Cl [CG47, N,N′-bis(3-ethylaminopropyl)-cis-but-2-ene-1,4-diamine tetrahydrochloride] | essentially unaffected | – | – | – | – | – | – | – | –
CC(/C=N/NC(=N)N)=N\NC(=N)N [MGBG] | – | 80% | dose-dependent decrease | effective in reducing | generally decreased slightly | significant decreases | significant decreases | > 55 days | lower absolute numbers
